In patent US20230114728A1 (Venatorx Pharmaceuticals, Inc., priority 2019, published 2023) one finds EC50 and MIC data, which are given here for two compounds.

For assay [1], the target named is T1, E. coli K12 PBP3 (Escherichia coli, UniProt P0AD68).
T1 construct: made in house
As to the kind of experiment: biochemical. In kind it is binding. An outline of the steps: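 A. baumannii PBP2 (2.5 μM) and PBP3 (0.2 μM) were run in 25 mM Tris pH 8.0 buffer with Tween 20; E. coli PBP3 (1.5 μM) and N. gonorrhoeae PBP2 ([…]) in 50 mM Hepes pH 8.0 buffer.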

Assay [2] concerns P. aeruginosa ATCC 35151. As to the kind of experiment: Broth microdilution MIC in CAMHB. In kind it is cell-based. The following applies: Pseudomonas aeruginosa, ATCC35151; MHB; hyper-permeable strain; read-out: Minimum Inhibitory Concentration, P. aeruginosa ATCC 35151. An outline of the steps: (§1)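 Standard CLSI-style microdilution in cation-adjusted Mueller Hinton broth, 2-fold dilution series, incubated 16-20 h at 37° C; endpoint was visual absence of growth.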
In general terms: Dilution methods test growth across graded concentrations, often in twofold steps.

The subject of assay [3] is E. coli D22. As to the kind of experiment: Broth microdilution MIC in CAMHB. In kind it is cell-based. Particulars: Escherichia coli; E. coli D22 (hyper-permeable); MHB; read-out: Minimum Inhibitory Concentration, E. coli D22. An outline of the steps: as §1
Assay [4] relates to K. pneumoniae SI-117 producing VIM-1. As to the kind of experiment: Broth microdilution MIC in CAMHB. In kind it is cell-based. Particulars: Klebsiella pneumoniae, read-out: Minimum Inhibitory Concentration, K. pneumoniae SI-117. An outline of the steps: as §1
In assay [5] the test system is E. coli ATCC 25922. Nature of the assay: Broth microdilution MIC in CAMHB. The following applies: Escherichia coli, ATCC25922; E. coli ATCC 25922; MHB; read-out: Minimum Inhibitory Concentration, E. coli 25922. In kind it is cell-based. An outline of the steps:
as §1

Converted amounts (≈) assume the structure as drawn. A value given as a limit tells only on which side of the number the result lay.

For orientation: EC50 means the concentration that produces a half-maximal response. Read a high EC50 as a need for much substance.

T1 sequence (P0AD68 1-577): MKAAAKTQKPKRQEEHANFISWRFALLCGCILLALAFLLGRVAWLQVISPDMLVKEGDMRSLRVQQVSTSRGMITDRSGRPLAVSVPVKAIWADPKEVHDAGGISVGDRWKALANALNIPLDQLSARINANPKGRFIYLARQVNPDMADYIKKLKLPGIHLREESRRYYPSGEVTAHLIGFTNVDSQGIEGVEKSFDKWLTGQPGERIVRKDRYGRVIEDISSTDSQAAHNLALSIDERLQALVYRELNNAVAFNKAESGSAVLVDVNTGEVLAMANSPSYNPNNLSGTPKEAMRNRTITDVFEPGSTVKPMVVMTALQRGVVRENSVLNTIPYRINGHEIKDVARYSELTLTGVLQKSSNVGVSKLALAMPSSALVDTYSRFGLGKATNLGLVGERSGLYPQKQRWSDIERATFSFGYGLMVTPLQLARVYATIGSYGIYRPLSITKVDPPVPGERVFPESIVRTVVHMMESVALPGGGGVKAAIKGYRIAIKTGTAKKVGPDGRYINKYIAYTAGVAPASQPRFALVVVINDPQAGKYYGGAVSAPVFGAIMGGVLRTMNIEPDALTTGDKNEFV

On to `CCN1CCN(C(=O)NC(C(=O)N[C@H]2Cc3cccc(C(=O)O)c3OB2O)c2cccc(NS(N)(=O)=O)c2)C(=O)C1=O` (stereo partly drawn) [Example 98, (3R)-3-(2-(4-ethyl-2,3-dioxopiperazine-1-carboxamido)-2-(3-(sulfamoylamino)phenyl)acetamido)-2-hydroxy-3,4-dihydro-2H-benzo[e][1,2]oxaborinine-8-carboxylic acid], for which, in assay [1], the EC50 is less than 30 µM. The MIC in assay [2] fell in the range of 0.5 to 1 µg/mL (≈ 0.83 to 1.66 µM); in assay [3], 0.5 to 1 µg/mL (≈ 0.83 to 1.66 µM); in assay [4], 32 to 64 µg/mL (≈ 53.1 to 106 µM); in assay [5], 8 to 16 µg/mL (≈ 13.3 to 26.6 µM).

In assay [1], `CCN1CCN(C(=O)NC(C(=O)N[C@H]2Cc3cccc(C(=O)O)c3OB2O)c2cccc(S(N)(=O)=O)c2)C(=O)C1=O` (stereo partly drawn) [Example 99, (3R)-3-(2-(4-ethyl-2,3-dioxopiperazine-1-carboxamido)-2-(3-sulfamoylphenyl)acetamido)-2-hydroxy-3,4-dihydro-2H-benzo[e][1,2]oxaborinine-8-carboxylic acid] showed an EC50 of 30 to 500 µM. The MIC was 2 to 4 µg/mL (≈ 3.4 to 6.81 µM) in assay [2], 2 to 4 µg/mL (≈ 3.4 to 6.81 µM) in assay [3], 32 to 64 µg/mL (≈ 54.5 to 109 µM) in assay [4] and 32 to 64 µg/mL (≈ 54.5 to 109 µM) in assay [5].
